Experimental findings from ChEMBL document CHEMBL3813632, “Thiazolo[3,2-a]benzimidazol-3(2H)-one derivatives: Structure-activity relationships of selective nucleotide pyrophosphatase/phosphodiesterase1 (NPP1) inhibitors” (Bioorg Med Chem, 2016) are described below.

The structures appear in SMILES notation. Active and inactive are the calls of the source. No cut-off for these calls is given here.

Data set [1] is described as follows: Chemical stability of the compound assessed as compound remaining at pH 9 at 37 degC after 8 hrs by HPLC-MS analysis. It is filed as physicochemical. To be noted: buffer, read-out: Stability.
In data set [2] the target is T1, Alkaline phosphatase, tissue-nonspecific isozyme (Homo sapiens) (UniProt P05186).
T1 sequence (whole entry): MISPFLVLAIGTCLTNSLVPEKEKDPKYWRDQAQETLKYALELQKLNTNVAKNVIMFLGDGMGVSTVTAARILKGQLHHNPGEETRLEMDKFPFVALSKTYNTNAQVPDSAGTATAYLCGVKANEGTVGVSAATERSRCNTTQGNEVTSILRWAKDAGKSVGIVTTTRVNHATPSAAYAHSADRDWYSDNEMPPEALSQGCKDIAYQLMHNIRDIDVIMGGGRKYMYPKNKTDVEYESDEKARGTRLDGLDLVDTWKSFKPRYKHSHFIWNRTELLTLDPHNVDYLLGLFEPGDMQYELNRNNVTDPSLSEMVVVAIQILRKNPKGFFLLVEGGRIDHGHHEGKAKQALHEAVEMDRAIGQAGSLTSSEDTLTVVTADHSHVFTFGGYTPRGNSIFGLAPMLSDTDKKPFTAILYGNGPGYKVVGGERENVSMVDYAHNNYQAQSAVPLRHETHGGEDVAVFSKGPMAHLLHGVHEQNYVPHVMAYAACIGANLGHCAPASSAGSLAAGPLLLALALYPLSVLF
Put plainly: Inhibition of human recombinant TNAP expressed in NS0 cells using p-nitrophenyl phosphate as substrate at 10 to 1000 uM preincubated with substrate followed by protein addition and subsequent incubation for 30 mins by colorimetric analysis.

Data set [3] has as its target T2, Ectonucleotide pyrophosphatase/phosphodiesterase family member 3 (Homo sapiens) (UniProt O14638).
T2 sequence (whole entry): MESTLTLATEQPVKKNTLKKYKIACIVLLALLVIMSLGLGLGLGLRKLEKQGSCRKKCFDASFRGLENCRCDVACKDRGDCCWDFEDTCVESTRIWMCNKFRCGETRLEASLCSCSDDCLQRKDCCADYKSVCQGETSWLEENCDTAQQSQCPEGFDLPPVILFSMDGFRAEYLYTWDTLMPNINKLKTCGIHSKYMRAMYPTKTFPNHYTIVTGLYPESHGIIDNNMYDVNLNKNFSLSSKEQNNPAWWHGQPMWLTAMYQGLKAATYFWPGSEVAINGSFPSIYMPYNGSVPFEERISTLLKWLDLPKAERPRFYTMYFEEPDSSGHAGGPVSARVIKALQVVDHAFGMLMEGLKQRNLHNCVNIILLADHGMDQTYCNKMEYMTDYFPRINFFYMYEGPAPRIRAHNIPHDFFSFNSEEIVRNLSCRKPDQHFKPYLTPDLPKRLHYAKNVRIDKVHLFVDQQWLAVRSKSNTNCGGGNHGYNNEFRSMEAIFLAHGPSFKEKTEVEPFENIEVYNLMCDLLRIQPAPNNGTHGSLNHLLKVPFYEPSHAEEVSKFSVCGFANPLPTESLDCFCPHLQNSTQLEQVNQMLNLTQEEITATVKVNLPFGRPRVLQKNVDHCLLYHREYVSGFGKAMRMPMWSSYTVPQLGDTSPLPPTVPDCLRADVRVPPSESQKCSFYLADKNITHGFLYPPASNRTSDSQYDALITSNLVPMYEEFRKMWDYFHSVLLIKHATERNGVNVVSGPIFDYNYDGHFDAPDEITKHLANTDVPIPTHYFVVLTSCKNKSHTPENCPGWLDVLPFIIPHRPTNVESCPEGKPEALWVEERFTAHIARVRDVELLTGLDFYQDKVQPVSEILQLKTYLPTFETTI
The data set can be described thus: Inhibition of human recombinant NPP3 expressed in insect SF9 cells using ATP as substrate at >100 uM preincubated with substrate followed by protein addition and subsequent incubation for 60 mins by capillary electrophoresis.

The species named for data set [4] is Homo sapiens. Put plainly: Selectivity ratio of Ki for human recombinant NPP2 to Ki for human recombinant NPP1.
The target in data set [5] is T3, Ectonucleoside triphosphate diphosphohydrolase 2 (Homo sapiens) (UniProt Q9Y5L3).
T3 sequence (whole entry): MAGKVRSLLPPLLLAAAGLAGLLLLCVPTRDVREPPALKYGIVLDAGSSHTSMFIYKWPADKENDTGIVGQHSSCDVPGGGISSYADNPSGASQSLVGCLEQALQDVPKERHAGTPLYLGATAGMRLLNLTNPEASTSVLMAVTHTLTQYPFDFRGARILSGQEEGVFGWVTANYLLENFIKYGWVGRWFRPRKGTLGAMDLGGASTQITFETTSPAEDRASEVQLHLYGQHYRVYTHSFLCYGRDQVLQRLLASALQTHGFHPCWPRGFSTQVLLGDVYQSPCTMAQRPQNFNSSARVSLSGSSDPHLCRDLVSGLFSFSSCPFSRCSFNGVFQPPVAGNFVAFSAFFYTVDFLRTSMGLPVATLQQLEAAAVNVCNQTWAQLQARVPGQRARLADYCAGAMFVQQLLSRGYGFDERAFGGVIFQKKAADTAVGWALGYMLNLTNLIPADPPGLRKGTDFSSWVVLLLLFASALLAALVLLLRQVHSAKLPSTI
The data set can be described thus: Inhibition of human recombinant NTPDase2 expressed in CHO cells using ATP as substrate at 10 to 1000 uM preincubated with substrate followed by protein addition and subsequent incubation for 30 mins by capillary electrophoresis.

The species named for data set [6] is Homo sapiens. The data set can be described thus: Selectivity ratio of Ki for human recombinant NPP3 to Ki for human recombinant NPP1.

For `O=c1/c(=C/c2ccc(I)o2)sc2nc3ccccc3n12`, in data set [1], the remaining at 8 h amounted to 70.5%. The inhibition result in data set [2] and in data set [5] was “inactive” throughout. Besides, the inhibition entry in data set [3] is “Active”. The Ratio Ki in the data set listed under Homo sapiens [4] and in the data set listed under Homo sapiens [6] was 1000 in each case.
